Data: the supplement of paper PMC10307832

Columns and labels:
Assay in all cases: relative viability (nuclei count vs DMSO), 5 days (fraction); higher = more cells survive
A549 = test system: A549
Procedure, shortened: (§1)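 Lung cancer cell lines were pin-tool dosed in 1536-well plates on the day after seeding, with either a lone drug or a fixed anchor-drug dose plus five library-drug doses (not always all listed) in √10 steps. Nuclei were counted on 4× images after 5 days. Relative viability is the ratio of treated-well to vehicle-well nuclei counts, with each value a median of duplicate plates.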

NCI-H2009 = test system: NCI-H2009
Procedure, shortened: as §1

NCI-H661 = test system: NCI-H661
Procedure, shortened: as §1

NCI-H1703 = test system: NCI-H1703
Procedure, shortened: as §1

EBC-1 = test system: EBC-1
Procedure, shortened: as §1

IA-LM = test system: IA-LM
Procedure, shortened: as §1

NCI-H460 = test system: NCI-H460
Procedure, shortened: as §1

Calu-6 = test system: Calu-6
Procedure, shortened: as §1

NCI-H1299 = test system: NCI-H1299
Procedure, shortened: as §1

HCC-78 = test system: HCC-78
Procedure, shortened: as §1

SMILES	relative viability (A549; first compound 0.08 µM)	relative viability (A549; first compound 0.253 µM)	relative viability (A549; first compound 0.8 µM)	relative viability (A549; first compound 2.53 µM)	relative viability (NCI-H2009; first compound 0.08 µM)	relative viability (NCI-H2009; first compound 0.253 µM)	relative viability (NCI-H2009; first compound 0.8 µM)	relative viability (NCI-H2009; first compound 2.53 µM)	relative viability (NCI-H661; first compound 0.08 µM)	relative viability (NCI-H661; first compound 0.253 µM)	relative viability (NCI-H661; first compound 0.8 µM)	relative viability (NCI-H661; first compound 2.53 µM)	relative viability (NCI-H1703; first compound 0.08 µM)	relative viability (NCI-H1703; first compound 0.253 µM)	relative viability (NCI-H1703; first compound 0.8 µM)	relative viability (NCI-H1703; first compound 2.53 µM)	relative viability (EBC-1; first compound 0.08 µM)	relative viability (EBC-1; first compound 0.253 µM)	relative viability (EBC-1; first compound 0.8 µM)	relative viability (EBC-1; first compound 2.53 µM)	relative viability (IA-LM; first compound 0.253 µM)	relative viability (IA-LM; first compound 0.8 µM)	relative viability (IA-LM; first compound 2.53 µM)	relative viability (NCI-H460; first compound 0.08 µM)	relative viability (NCI-H460; first compound 0.253 µM)	relative viability (NCI-H460; first compound 0.8 µM)	relative viability (NCI-H460; first compound 2.53 µM)	relative viability (Calu-6; first compound 0.08 µM)	relative viability (Calu-6; first compound 0.253 µM)	relative viability (Calu-6; first compound 0.8 µM)	relative viability (Calu-6; first compound 2.53 µM)	relative viability (NCI-H1299; first compound 0.08 µM)	relative viability (NCI-H1299; first compound 0.253 µM)	relative viability (NCI-H1299; first compound 0.8 µM)	relative viability (NCI-H1299; first compound 2.53 µM)	relative viability (HCC-78; first compound 0.08 µM)	relative viability (HCC-78; first compound 0.253 µM)	relative viability (HCC-78; first compound 0.8 µM)	relative viability (HCC-78; first compound 2.53 µM)	relative viability (IA-LM; first compound 0.08 µM)
COc1nc(C)cnc1NS(=O)(=O)c1cccnc1-c1ccc(-c2nnco2)cc1 [Zibotentan] + CS(=O)(=O)N1CCN(Cc2cc3nc(-c4cccc5[nH]ncc45)nc(N4CCOCC4)c3s2)CC1 [Pictilisib] (partner 1 µM)	0.478	0.388	0.57	0.519	0.889	0.774	0.822	0.886	0.43	0.302	0.391	0.314	0.232	0.272	0.26	0.252	0.369	0.435	0.486	0.389	0.312	0.328	0.301	0.351	0.336	0.327	0.38	0.868	0.83	0.881	1.03	0.911	0.777	0.773	0.661	0.0937	0.23	0.198	0.195	–
COc1nc(C)cnc1NS(=O)(=O)c1cccnc1-c1ccc(-c2nnco2)cc1 [Zibotentan] + CS(=O)(=O)CCNCc1ccc(-c2ccc3ncnc(Nc4ccc(OCc5cccc(F)c5)c(Cl)c4)c3c2)o1 [Lapatinib] (partner 2 µM)	1.03	1.01	1.05	1.12	0.921	0.82	1	1.02	0.453	0.445	0.445	0.46	0.968	0.894	1.24	0.511	0.235	0.222	0.222	0.2	0.808	0.9	0.847	1.04	–	1.03	1.12	1.02	1.06	1.16	1.14	0.989	0.906	0.959	0.928	0.844	0.701	0.847	0.788	0.68
